Data as given in US12673017B2, “Ultra-mild, concentrated and self-preserving cleansing compositions for personal care” (GALAXY SURFACTANTS LTD, priority 2022, dated 2026).

System: blood capillaries of chorioallantoic membrane of hen's fertilized egg
Assay: HET-CAM test (hen's egg test on chorioallantoic membrane, Invittox protocol 47)
Parameters: species or system White Leghorn chicken
Settings: for Irritancy Score by HET-CAM: Table 2, individual surfactants
Description: The HET-CAM (Hen's egg test on chorioallantoic membrane, as per Invittox Protocol 47) method. The hen's egg test on Chorioallantoic Membrane (HET-CAM) is an alternative in-vitro method developed by Luepke et al. to substitute Draize test that was done on rabbits. (Luepke N. Hen's egg chorioallantoic membrane test for irritation potential. Food Chem Toxicol. 1985; 23(2):287-291). It is subsequently modified by […] et al. ([…] Test. The […]. Databank of in-vitro techniques. […] Subsequently, the methodology is successfully adopted to personal care by […] et al. ([…], Bracher M, Courtellemont P, de Silva O. The HET-CAM, a useful in vitro assay for assessing the eye irritation properties of cosmetic formulations and ingredients. Toxicol. […] The egg's shell is opened at the side of the air chamber, and the egg white membrane is removed while avoiding any damage to the fine blood vessels. […] Based on Irritation score the damaging potential is classified into four categories as described in the table 1 below. White Leghorn chicken eggs (up to 9 days of incubation) are candled to ensure that all are viable. Egg shell is marked using a rotating dentist-sawblade and the section of the shell is removed. The membrane is carefully moistened with 0.9% NaCl solution and the eggs are replaced in incubator until ready for assaying. […] Onset of haemorrhage (Bleedings), vascular lysis (Blood vessel disintegration), coagulation (protein denaturation intra and extra vascular) is monitored. The onset of the biological endpoints is recorded in number of seconds and the irritancy scores are calculated as per formula prescribed in the protocol document. The irritancy score is broadly divided into four different categories of damaging potential as described in Table 1.

## CCCCCCCCCCCCOS(=O)(=O)[O-].[Na+] [Sodium lauryl sulphate]
  Irritancy score (IS) by HET-CAM: around 16
1% test solution
  Irritancy Score by HET-CAM: 16.7
Table 3b
  C, calculated coagulation part of IS: 5.0
  H, calculated haemorrhage part of IS: 4.5
  IS (irritation score): 15.1
  L, calculated lysis part of IS: 5.6
Table 3b, 1% test solution
  C, time for appearance of coagulation: 134 s
  H, time for appearance of haemorrhage: 31 s
  L, time for appearance of lysis: 63 s
Table 6a
  C, time for appearance of coagulation: 134 s
  Calculation C: 5.0
  Calculation H: 4.5
  Calculation L: 5.6
  H, time for appearance of haemorrhage: 31 s
  IS (irritation score): 15.1
  L, time for appearance of lysis: 63 s
Table 12
  C, calculated coagulation part of score: 5.0
  C, time for appearance of coagulation: 134 s
  H, calculated haemorrhage part of score: 4.5
  H, time for appearance of haemorrhage: 31 s
  Irritancy score: 15.1
  L, calculated lysis part of score: 5.6
  L, time for appearance of lysis: 63 s

## Caprylyl/capryl glucoside
1% test solution
  Irritancy Score by HET-CAM: 8

## Cocamido propyl sulphobetaine
1% test solution
  Irritancy Score by HET-CAM: 10

## Cocamidopropyl PG dimonium chloride phosphate
1% test solution
  Irritancy Score by HET-CAM: 7.5

## Cocomido propyl betaine
1% test solution
  Irritancy Score by HET-CAM: 10.8

## Lauramido propyl PG dimonium chloride phosphate
1% test solution
  Irritancy Score by HET-CAM: 8.0

## Lauryl glucoside
1% test solution
  Irritancy Score by HET-CAM: 6.5
